In patent US6737383B1, “Herbicidal oxadiazolidines” (priority 1999, dated 2004):

What was measured:
smallflower flatsedge = assay: Test B flood test smallflower flatsedge; format: in vivo, Cyperus difformis
How it was run: (§1)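 Each value is a visual injury score relative to controls, with 10 meaning complete control and 0 no effect. Evaluation took place twelve to sixteen days after the 2-leaf-stage plants were treated and kept in the greenhouse.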

soybean = assay: Test B pre/postemergence soybean; format: in vivo, Glycine max; conditions: for Plant response rating, Soybean: scale of 0 to 10 where 0 is no effect and 10 is complete control
How it was run: (§2)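 Response is a visual 0-to-10 score relative to untreated plants, where 0 means no effect and 10 means complete control, taken twelve to sixteen days after application. Treatments went onto soil at planting and onto foliage of 1- to 4-leaf plants, using a surfactant-containing non-phytotoxic solvent.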

duck salad = assay: Test B flood test duck salad; format: in vivo, Heteranthera limosa
How it was run: as §1

purple nutsedge = assay: Test B pre/postemergence purple nutsedge; format: in vivo, Cyperus rotundus; conditions: for Plant response rating, Nutsedge: scale of 0 to 10 where 0 is no effect and 10 is complete control
How it was run: as §2

crabgrass = assay: Test B pre/postemergence crabgrass; format: in vivo, Digitaria sanguinalis
How it was run: as §2

wild oat = assay: Test B pre/postemergence wild oat; format: in vivo, Avena fatua; conditions: for Plant response rating, Wild oats: scale of 0 to 10 where 0 is no effect and 10 is complete control
How it was run: as §2

bedstraw = assay: Test B pre/postemergence bedstraw; format: in vivo, Galium aparine
How it was run: as §2

rape = assay: Test B pre/postemergence rape; format: in vivo, Brassica napus; conditions: for Plant response rating, Rape: scale of 0 to 10 where 0 is no effect and 10 is complete control
How it was run: as §2

cocklebur = assay: Test B pre/postemergence cocklebur; format: in vivo, Xanthium strumarium
How it was run: as §2

rice = assay: Test B flood test rice; format: in vivo, Oryza sativa
How it was run: as §1

bamyardgrass = assay: Test B flood test barnyardgrass; format: in vivo, Echinochloa crus-galli
How it was run: as §1

wheat = assay: Test B pre/postemergence wheat; format: in vivo, Triticum aestivum; conditions: for Plant response rating, Wheat: scale of 0 to 10 where 0 is no effect and 10 is complete control
How it was run: as §2

blackgrass = assay: Test B pre/postemergence blackgrass; format: in vivo, Alopecurus myosuroides
How it was run: as §2

surinam grass = assay: Test B pre/postemergence surinam grass; format: in vivo, Brachiaria decumbens
How it was run: as §2

velvetleaf = assay: Test B pre/postemergence velvetleaf; format: in vivo, Abutilon theophrasti; conditions: for Plant response rating, Velvetleaf: scale of 0 to 10 where 0 is no effect and 10 is complete control
How it was run: as §2

sugar beet = assay: Test B pre/postemergence sugar beet; format: in vivo, Beta vulgaris; conditions: for Plant response rating, Sugarbeets: scale of 0 to 10 where 0 is no effect and 10 is complete control
How it was run: as §2

corn = assay: Test B pre/postemergence corn; format: in vivo, Zea mays
How it was run: as §2

[1] = Rate 62 g/ha, flood test species, Pre-emergence, visual evaluation after twelve to sixteen days
[2] = Rate 125 g/ha, under heading Pre-emergence, flood test species, visual evaluation after twelve to sixteen days
[3] = Rate 250 g/ha, Pre-emergence (flood test species), scale 0 to 10, 0 is no effect, 10 is complete control
[4] = Rate 500 g/ha, Pre-emergence, flood test species, scale 0 to 10 (0 no effect, 10 complete control)
[5] = Postemergence, Rate 250 g/ha, scale 0 to 10
[6] = Preemergence, Rate 250 g/ha, scale 0 to 10, 0 is no effect, 10 is complete control
[7] = Preemergence, Rate 500 g/ha, scale 0 to 10, 0 is no effect, 10 is complete control
[8] = Rate 62 g/ha, Postemergence, scale 0 to 10 (0 no effect, 10 complete control)
[9] = Rate 125 g/ha, Postemergence, scale 0 to 10, 0 is no effect, 10 is complete control
[10] = Postemergence, Rate 500 g/ha, scale of 0 to 10 where 0 is no effect and 10 is complete control
[11] = Preemergence, Rate 62 g/ha, scale of 0 to 10 where 0 is no effect and 10 is complete control
[12] = Preemergence, Rate 125 g/ha, scale of 0 to 10 where 0 is no effect and 10 is complete control

Structure (SMILES): CC(C)N(C(=O)n1oc(=O)n(CCCl)c1=O)c1ccc(Cl)cc1 [Compound 474]
- Plant response rating, S. Flatsedge (0 to 10 scale, 0 is no effect, 10 is complete control) (smallflower flatsedge; [1]): 0
- S. Flatsedge plant response rating (0 to 10 scale, 0 is no effect, 10 is complete control) (smallflower flatsedge; [2]): 0
- S. Flatsedge plant response rating (smallflower flatsedge; [3]): 0
- S. Flatsedge plant response rating (smallflower flatsedge; [4]): 0
- Soybean plant response rating (soybean; [5]): 4
- Plant response rating, Soybean (soybean; Preemergence, Rate 62 g/ha): 0
- Plant response rating, Soybean (soybean; Preemergence, Rate 125 g/ha): 0
- Soybean plant response rating (soybean; [6]): 0
- Soybean plant response rating (soybean; [7]): 0
- Soybean plant response rating (soybean; [8]): 3
- Soybean plant response rating (soybean; [9]): 4
- Plant response rating, Ducksalad (0 to 10 scale, 0 is no effect, 10 is complete control) (duck salad; [1]): 0
- Ducksalad plant response rating (0 to 10 scale, 0 is no effect, 10 is complete control) (duck salad; [2]): 0
- Ducksalad plant response rating (duck salad; [3]): 0
- Ducksalad plant response rating (duck salad; [4]): 0
- Nutsedge plant response rating (purple nutsedge; [5]): 0
- Plant response rating, Nutsedge (purple nutsedge; Preemergence, Rate 62 g/ha): 0
- Plant response rating, Nutsedge (purple nutsedge; Preemergence, Rate 125 g/ha): 0
- Nutsedge plant response rating (purple nutsedge; [6]): 0
- Nutsedge plant response rating (purple nutsedge; [7]): 0
- Nutsedge plant response rating (purple nutsedge; [8]): 0
- Nutsedge plant response rating (purple nutsedge; [9]): 0
- Crabgrass plant response rating (crabgrass; [5]): 6
- Crabgrass plant response rating (crabgrass; [10]): 9
- Plant response rating, Crabgrass (crabgrass; [11]): 6
- Plant response rating, Crabgrass (crabgrass; [12]): 9
- Crabgrass plant response rating (crabgrass; [6]): 9
- Crabgrass plant response rating (crabgrass; [7]): 10
- Crabgrass plant response rating (crabgrass; [8]): 2
- Crabgrass plant response rating (crabgrass; [9]): 5
- Wild oats plant response rating (wild oat; [5]): 0
- Plant response rating, Wild oats (wild oat; Preemergence, Rate 62 g/ha): 0
- Plant response rating, Wild oats (wild oat; Preemergence, Rate 125 g/ha): 3
- Wild oats plant response rating (wild oat; [6]): 4
- Wild oats plant response rating (wild oat; [7]): 8
- Wild oats plant response rating (wild oat; [8]): 0
- Wild oats plant response rating (wild oat; [9]): 0
- Bedstraw plant response rating (bedstraw; [5]): 8
- Bedstraw plant response rating (bedstraw; [10]): 8
- Plant response rating, Bedstraw (bedstraw; [11]): 0
- Bedstraw plant response rating (bedstraw; [7]): 0
- Bedstraw plant response rating (bedstraw; [8]): 6
- Bedstraw plant response rating (bedstraw; [9]): 6
- Rape plant response rating (rape; [5]): 0
- Plant response rating, Rape (rape; Preemergence, Rate 62 g/ha): 0
- Plant response rating, Rape (rape; Preemergence, Rate 125 g/ha): 0
- Rape plant response rating (rape; [6]): 2
- Rape plant response rating (rape; [7]): 4
- Rape plant response rating (rape; [8]): 0
- Rape plant response rating (rape; [9]): 0
- Cocklebur plant response rating (cocklebur; [5]): 0
- Cocklebur plant response rating (cocklebur; [10]): 4
- Plant response rating, Cocklebur (cocklebur; [11]): 0
- Plant response rating, Cocklebur (cocklebur; [12]): 0
- Cocklebur plant response rating (cocklebur; [6]): 0
- Cocklebur plant response rating (cocklebur; [7]): 0
- Cocklebur plant response rating (cocklebur; [8]): 0
- Cocklebur plant response rating (cocklebur; [9]): 0
- Plant response rating, Rice (0 to 10 scale, 0 is no effect, 10 is complete control) (rice; [1]): 0
- Rice plant response rating (0 to 10 scale, 0 is no effect, 10 is complete control) (rice; [2]): 0
- Rice plant response rating (rice; [3]): 0
- Rice plant response rating (rice; [4]): 0
- Plant response rating, Barnyardgrass (0 to 10 scale, 0 is no effect, 10 is complete control) (bamyardgrass; [1]): 0
- Barnyardgrass plant response rating (0 to 10 scale, 0 is no effect, 10 is complete control) (bamyardgrass; [2]): 0
- Barnyardgrass plant response rating (bamyardgrass; [3]): 0
- Barnyardgrass plant response rating (bamyardgrass; [4]): 0
- Wheat plant response rating (wheat; [5]): 0
- Plant response rating, Wheat (wheat; Preemergence, Rate 62 g/ha): 0
- Plant response rating, Wheat (wheat; Preemergence, Rate 125 g/ha): 0
- Wheat plant response rating (wheat; [6]): 0
- Wheat plant response rating (wheat; [7]): 0
- Wheat plant response rating (wheat; [8]): 0
- Wheat plant response rating (wheat; [9]): 0
- Blackgrass plant response rating (blackgrass; [5]): 8
- Blackgrass plant response rating (blackgrass; [10]): 8
- Plant response rating, Blackgrass (blackgrass; [11]): 3
- Plant response rating, Blackgrass (blackgrass; [12]): 3
- Blackgrass plant response rating (blackgrass; [6]): 4
- Blackgrass plant response rating (blackgrass; [7]): 9
- Blackgrass plant response rating (blackgrass; [8]): 7
- B. signalgrass plant response rating (surinam grass; Postemergence, Rate 250 g/ha, scale 0 to 10, 0 no effect, 10 complete control): 1
- B. signalgrass plant response rating (surinam grass; [10]): 4
- Plant response rating, B. signalgrass (surinam grass; [11]): 0
- Plant response rating, B. signalgrass (surinam grass; [12]): 2
- B. signalgrass plant response rating (surinam grass; [6]): 7
- B. signalgrass plant response rating (surinam grass; [7]): 7
- B. signalgrass plant response rating (surinam grass; [8]): 0
- B. signalgrass plant response rating (surinam grass; [9]): 1
- Velvetleaf plant response rating (velvetleaf; [5]): 0
- Plant response rating, Velvetleaf (velvetleaf; Preemergence, Rate 62 g/ha): 0
- Plant response rating, Velvetleaf (velvetleaf; Preemergence, Rate 125 g/ha): 0
- Velvetleaf plant response rating (velvetleaf; [6]): 0
- Velvetleaf plant response rating (velvetleaf; [7]): 0
- Velvetleaf plant response rating (velvetleaf; [8]): 0
- Velvetleaf plant response rating (velvetleaf; [9]): 0
- Sugarbeets plant response rating (sugar beet; [5]): 0
- Plant response rating, Sugarbeets (sugar beet; Preemergence, Rate 62 g/ha): 0
- Plant response rating, Sugarbeets (sugar beet; Preemergence, Rate 125 g/ha): 0
- Sugarbeets plant response rating (sugar beet; [6]): 0
- Sugarbeets plant response rating (sugar beet; [7]): 3
- Sugarbeets plant response rating (sugar beet; [8]): 0
- Sugarbeets plant response rating (sugar beet; [9]): 0
- Corn plant response rating (corn; [5]): 0
- Corn plant response rating (corn; [10]): 0
- Plant response rating, Corn (corn; [11]): 0
- Plant response rating, Corn (corn; [12]): 0
- Corn plant response rating (corn; [6]): 0
- Corn plant response rating (corn; [7]): 4
- Corn plant response rating (corn; [8]): 0
- Corn plant response rating (corn; [9]): 0
